Patent US4038287A, “Compounds of allantoin with basic amino acids” (Kawaken Fine Chemicals Co., Ltd., priority 1975, dated 1977)
Values after ≈ are worked out from the molar mass of the structure shown.

Experiments:
Assay type in all cases: physicochemical
[1] = Solubility (wt.% at 20° C.) in water and alcohol-water solutions; settings: for solubility: water
Excerpt: (§1) The solubility of pure allantoin at room temperature is 0.6 wt. % in water, 1.0 wt. % in glycerol and 0.3 wt. % in 50 vol. % aqueous solution of ethyl alcohol. In contrast, the solubilities of the compounds of the present invention in the aforementioned solvents are shown in Table I. It will be understood from Table I that all compounds of the present invention can be dissolved to make present in the solution much more allantoin than can be obtained by dissolving allantoin, per se.
Solubility (wt.% at 20° C.)

physchem = assay: physchem
Excerpt: as §1

[2] = Dissolved amount of allantoin component of the compounds; settings: 20° C.
Excerpt: as §1
Also, comparing the dissolved amount of the allantoin component of the compounds according to the present invention and that allantoin, per se, the former is about fifteen times greater than that of allantoin, per se, and the effects of allantoin are thereby improved.

[3] = pH of a saturated solution in water
Excerpt: Referring to the pH of a saturated solution obtained by dissolving the compounds of the present invention, respectively, in water, the solution pH of allantoin/arginine molecular compound was 8.5, that of allantoin/ornithine molecular compound was 9.0 and that of allantoin/lysine compound was 8.9. When the pH of the respective saturated solutions of compounds according to the invention was adjusted, with HCl solution, to the pH value of a saturated solution of pure allantoin in water, namely 5 to 6, and even though the saturated solutions of the compounds according to the invention contain a higher concentration of allantoin than that of a saturated solution of pure allantoin, no crystals of allantoin precipitated from the respective solutions of compounds according to the invention.

Row | Solubility in 50% ethyl alcohol-water solution [1] [wt.%] | Solubility in 50% isopropyl alcohol-water solution [1] [wt.%] | Solubility in 50% methyl alcohol-water solution [1] [wt.%] | solubility [1] [mg/mL] | Solubility of pure allantoin in 50 vol. % aqueous solution of ethyl alcohol (physchem) [wt. %] | Solubility of pure allantoin in glycerol (physchem) [wt. %] | solubility (physchem; water) [mg/mL] | Dissolved amount of allantoin component, 50% ethyl alcohol-water solution [2] [wt.%] | Dissolved amount of allantoin component, 50% isopropyl alcohol-water solution [2] [wt.%] | Dissolved amount of allantoin component, 50% methyl alcohol-water solution [2] [wt.%] | Dissolved amount of allantoin component, water [2] [wt.%] | pH of a saturated solution in water [3] | SMILES
1 | 0.3 | 0.1 | 0.5 | 6 (≈ 37.9 mM) | 0.3 | 1.0 | 6 (≈ 37.9 mM) | – | – | – | – | – | NC(=O)NC1NC(=O)NC1=O (stereo not shown) [Allantoin, allantoin]
2 | 9.6 | 4.8 | 21.7 | 300 (≈ 986 mM) | – | – | – | 5.0 | 2.5 | 11.3 | 15.6 | 8.9 | NC(=O)NC1NC(O)(NCCCCC(N)C(=O)O)NC1=O (stereo not shown) [Allantoin/lysine compound (C)]
3 | 12.3 | 6.6 | 26.2 | 405 (≈ 1400 mM) | – | – | – | 6.7 | 3.6 | 14.3 | 22.1 | 9.0 | NC(=O)NC1NC(O)(NCCCC(N)C(=O)O)NC1=O (stereo not shown) [Allantoin/ornithine compound (B)]
4 | 19.8 | 9.9 | 43.3 | 603 (≈ 1810 mM) | – | – | – | 9.4 | 4.6 | 20.2 | 28.2 | 8.5 | N=C(NCCCC(N)C(=O)O)NC1(O)NC(=O)C(NC(N)=O)N1 (stereo not shown) [Allatoin/arginine (1:1) compound (A)]
